Results as given in patent US20100144873A1, “TREATMENT OF MYOCARDITIS USING FTS” (RAMOT AT TEL-AVIV UNIVERSITY LTD., priority 2007, published 2010).

Legend:
[1] = tested on: lymphocytes from lymph nodes of FTS-treated Lewis rats; test: Lymphocyte proliferation assay (XTT) on lymphocytes from FTS-treated myosin-immunized rats; assay type: in vivo, Lewis rat
Experimental: (§1) Porcine cardiac myosin (Sigma) was dissolved in PBS to a concentration of 0.4 μg/ul. Each rat was immunized by a single subcutaneous injection in both footpads on day 0 with an emulsion containing 1 mg of cardiac myosin with an equal volume of complete Freund's adjuvant containing 10.0 mg/mL of heat-killed Mycobacterium tuberculosis.
(§2) FTS was provided by Concordia Pharmaceuticals, Inc. (Ft. Lauderdale, Fla.). FTS was stored in chloroform, which was evaporated under a stream of nitrogen immediately before use. The powder was dissolved in absolute ethanol and diluted to the desired concentration in sterile PBS made basic with NaOH. Carrier solution (1000 μl) containing 1.35 mg of FTS (5 mg/kg) was injected intraperitoneally (i.p.) into each rat. Control solution was prepared at the same time, starting with PBS and absolute ethanol.
(§3) Two groups of rats were induced to develop EAM by immunization with cardiac myosin according to two protocols. In Protocol 1 (prevention regimen), FTS or PBS (control) was administered two (2) days prior to myosin immunization at a dose of 5 mg/kg (FTS pre-treatment before immunization). Thereafter, dosing was continued for a period of fourteen (14) days with administration of FTS or PBS occurring every other day. […]
Lymphocyte proliferation was evaluated using XTT reagent, according to standard procedures, after 96 h of incubation. […]

[2] = tested on: experimental autoimmune myocarditis (EAM); test: Histopathology, Masson trichrome: scar area (collagen deposition) in EAM; assay type: in vivo, Lewis rat; conditions: FTS 5 mg/kg i.p., vs control rats
Experimental: as §1, §2
Two groups of rats were induced to develop EAM by immunization with cardiac myosin according to two protocols. In Protocol 1 (prevention regimen), FTS or PBS (control) was administered two (2) days prior to myosin immunization at a dose of 5 mg/kg (FTS pre-treatment before immunization). […]
In order to evaluate the severity of scaring of the heart tissue, Masson trichrome staining was performed to assess collagen deposition in the three study groups. […] FIGS. 4B and C illustrate typical representations of the stained sections and quantitative analysis of the results.

[3] = human Phase I, doses up to 1800 mg/day; cited from earlier work
[4] = tested on: Ras and its downstream signaling effectors in lymphocytes; test: Western immunoblotting of total Ras, Erk, P-Erk, Akt, P-Akt in lymphocytes of treated rats; assay type: in vivo, Lewis rat
Experimental: (§4) Two groups of rats were induced to develop EAM by immunization with cardiac myosin according to two protocols. In Protocol 1 (prevention regimen), FTS or PBS (control) was administered two (2) days prior to myosin immunization at a dose of 5 mg/kg (FTS pre-treatment before immunization). Thereafter, dosing was continued for a period of fourteen (14) days with administration of FTS or PBS occurring every other day. In Protocol 2 (treatment regimen), FTS or PBS (control) was administered fourteen (14) days after porcine cardiac myosin immunization at a dose of 5 mg/kg (FTS post-EAM). Thereafter, dosing was continued for a period of seven (7) days with administration of FTS or PBS occurring every other day. Under both protocols, the Lewis rats were sacrificed at day 21 and hearts, lymph nodes and spleens were excised for histological and immunological analyses.
Lymphocytes were obtained from lymph nodes of FTS- and PBS-treated rats. The lymphocytes were homogenized in cold homogenization buffer containing protease inhibitors. Protein concentration was determined by the Bradford assay and samples containing 100 μg protein were used for determination of total Ras, total Erk, P-Erk, total Akt and P-Akt by Western immunoblotting using, respectively: pan-anti-Ras Ab (Ab03; Santa Cruz, Calif.), anti Erk Ab (Santa Cruz, Calif.), anti P-Erk Ab (Sigma), anti Akt Ab (Cell Signaling), and anti P-Akt Ab (Cell Signaling).
Enhanced chemiluminescence (ECL) and densitometric analysis were performed as detailed in R. Haklai, M. G. Weisz, G. Elad, et al., Biochemistry 37:1306-1314 (1998).

active GTP-bound Ras = test: Ras-GTP determination by glutathione S-transferase-RBD pull-down assay in lymphocytes of treated rats; assay type: in vivo, Lewis rat
Experimental: as §4
The lymphocytes were prepared as mentioned above. Samples containing 1.5 mg protein used for determination of levels of active GTP-bound Ras by the glutathione S-transferase-RBD pull-down assay followed by Western immunoblotting with pan-anti-Ras Ab as detailed in G. Elad-Sfadia, R. Haklai, E. Ballan et al., J. Biol. Chem. 277:37169-75 (2002).

[5] = tested on: lymphocytes from lymph nodes of rats with EAM; test: Ex vivo proliferation assay with FTS (XTT, 96 h) on lymphocytes from EAM rats; assay type: cell-based, rat
Experimental: FTS was provided by Concordia Pharmaceuticals, Inc. (Ft. Lauderdale, Fla.). FTS was stored in chloroform, which was evaporated under a stream of nitrogen immediately before use. The powder was dissolved in DMSO. This solution was diluted with RPMI/10% FCS to yield a 10 mM drug stock solution containing 10% DMSO. A portion of this solution was applied to the cells at a dilution of 1:100. Ex Vivo Proliferation Assay with FTS Five (5) rats with EAM were sacrificed on day fourteen (14). Lymphocytes were taken from lymph nodes, prepared as described and 1×10^5 cells/well seeded in 96 microwell plates. Lymphocytes were incubated in the presence of Myosin 2.5 μg/ml or Concavalin A in the presence of 0, 3.125, 6.25, 12.5, and 25 μM FTS. Lymphocyte proliferation was evaluated using XTT reagent after 96 h of incubation. To investigate the effect of FTS on the proliferative capacity of lymphocytes from EAM rats against myosin ex vivo, lymph nodes were excised from the EAM rodent models fourteen (14) days following myosin immunizations. Thereafter, lymphocytes were incubated in the presence of (A) myosin (2.5 μg/ml) and (B) Concavalin A (4 μg/ml) with varying concentrations of FTS. […] The proliferation rate was reduced in the presence of 50 μM FTS ex vivo by 48% (FIG. 1B). Thus, proliferation of lymphocytes against potential cardiac epitopes may be attenuated following FTS administration.

[6] = tested on: myocardial dysfunction following myosin-induced EAM; test: M-mode echocardiography after six weeks of FTS in EAM; assay type: in vivo, Lewis rat; conditions: FTS 5 mg/kg from 2 days before myosin immunization, every other day for six weeks; vs PBS-treated
Experimental: as §1, §2
Another group of experiments was designed to study the effects of FTS on prevention of myocardial dysfunction following myosin-induced EAM. Under this regimen, FTS or PBS was given two (2) days before myosin immunization, then every other day for six (6) weeks (when compromised heart function is expected). After six (6) weeks, M-mode echocardiography was performed as described in George J, Biner S, Keren P, Barshack I, Goldberg I, Sherez J, Levitski A, Keren G, Roth A. Exp Mol. Pathol. 74(3):314-8 2003. […]

[7] = tested on: experimental autoimmune myocarditis (EAM); test: Histopathology, H&E: severity of myocarditis (Dallas criteria) in EAM; assay type: in vivo, Lewis rat; conditions: FTS 5 mg/kg i.p., mean±SE, control group 1.61±0.23, p<0.05
Experimental: as §1, §2
Two groups of rats were induced to develop EAM by immunization with cardiac myosin according to two protocols. […]
Hearts were removed and fixed in 10% formalin, then embedded in paraffin. […] Every fifth section was examined for the presence of myocarditis by light microscopy, and was evaluated according to previously published criteria (the Dallas criteria) describing the severity of myocarditis as follows: severe (2)>50% of the heart involved; moderate (1)=10-50% involved; and minimal (0)=<10% involved, or normal. […]

[8] = tested on: IgG anti-myosin antibodies; test: IgG anti-myosin antibody levels in sera by ELISA; assay type: in vivo, Lewis rat; conditions: FTS 5 mg/kg i.p., p<0.05 vs control
Experimental: as §1, §2, §3

[9] = Protocol 1 FTS-treated rats vs control
[10] = Protocol 1 FTS-treated rats vs control animals

CC(C)=CCC/C(C)=C/CC/C(C)=C/CSc1ccccc1C(=O)O [FTS, S-farnesylthiosalicylic acid]
proliferation in response to non-specific mitogen Concavalin A ([1]; FTS-treated rats vs control animals (data not shown)): not diminished
decrease in lymphocyte proliferation in comparison with PBS ([1]; Protocol 1 (prevention): FTS 5 mg/kg i.p. from 2 days before myosin immunization, every other day for 14 days, p<0.05): ~35%
collagen deposition (scar formation) ([2]; Protocol 1 (prevention)): reduced collagen deposition
collagen deposition (scar formation) ([2]; Protocol 2 (treatment)): reduced collagen deposition
dose-limiting toxicities [3]: no dose-limiting toxicities
phospho-Akt level in lymphocytes [4, 9]: significant decrease
phospho-Erk level in lymphocytes [4, 9]: significant decrease
total Akt level in lymphocytes [4, 9]: not affected
total Erk level in lymphocytes [4, 9]: not affected
total Ras level in lymphocytes [4, 10]: downregulated
Ras-GTP level in lymphocytes (active GTP-bound Ras; [10]): downregulated
ratio of Ras-GTP to total Ras (active GTP-bound Ras; lymphocytes of Protocol 1 FTS-treated rats): did not significantly alter
reduction of proliferation rate of Concavalin A-treated lymphocytes ([5]; Concavalin A 4 μg/ml, 50 μM FTS ex vivo): 48%
proliferation of Concavalin A-treated lymphocytes vs controls ([5]; Concavalin A 4 μg/ml, varying concentrations of FTS ex vivo): dose-dependent reduction in proliferation
reduction of lymphocyte proliferation to myosin ([5]; myosin 2.5 μg/ml, FTS 25 and 50 μM, ex vivo, vs controls, p<0.05): 79±7%
fractional shortening (systolic parameter) [6]: improved
left ventricular diastolic diameter [6]: improved
severity of myocarditis (myocarditis score) ([7]; Protocol 1 (prevention)): 0.28±0.15 scale of 0-2 arbitrary units
severity of myocarditis (myocarditis score) ([7]; Protocol 2 (treatment)): 0.33±0.24 scale of 0-2 arbitrary units
IgG anti-myosin antibody levels ([8]; Protocol 1 (prevention)): significantly reduced levels of IgG anti-myosin antibody
IgG anti-myosin antibody levels ([8]; Protocol 2 (treatment)): significantly reduced IgG anti-myosin antibody levels
